Assay results reported in US12485123B2, “1H-pyrazolo[4,3-d]pyrimidine compounds as toll-like receptor 7 (TLR7) agonists” (BRISTOL-MYERS SQUIBB COMPANY, priority 2020, dated 2025).

Legend:
[1] = biological target: T1, human TLR7 (Homo sapiens, UniProt Q9NYK1); assay: Human TLR7 agonist activity reporter assay (HEK-Blue TLR7 cells, SEAP reporter); format: cell-based; conditions: human TLR7 (hTLR7) reporter assay, SEAP readout after 18 h, average where assay repeated, read-out: TLR7 Agonism EC50
T1 construct: host or cells: HEK-Blue TLR7 cells (engineered human embryonic kidney cells)
T1 sequence (Q9NYK1 27-1049): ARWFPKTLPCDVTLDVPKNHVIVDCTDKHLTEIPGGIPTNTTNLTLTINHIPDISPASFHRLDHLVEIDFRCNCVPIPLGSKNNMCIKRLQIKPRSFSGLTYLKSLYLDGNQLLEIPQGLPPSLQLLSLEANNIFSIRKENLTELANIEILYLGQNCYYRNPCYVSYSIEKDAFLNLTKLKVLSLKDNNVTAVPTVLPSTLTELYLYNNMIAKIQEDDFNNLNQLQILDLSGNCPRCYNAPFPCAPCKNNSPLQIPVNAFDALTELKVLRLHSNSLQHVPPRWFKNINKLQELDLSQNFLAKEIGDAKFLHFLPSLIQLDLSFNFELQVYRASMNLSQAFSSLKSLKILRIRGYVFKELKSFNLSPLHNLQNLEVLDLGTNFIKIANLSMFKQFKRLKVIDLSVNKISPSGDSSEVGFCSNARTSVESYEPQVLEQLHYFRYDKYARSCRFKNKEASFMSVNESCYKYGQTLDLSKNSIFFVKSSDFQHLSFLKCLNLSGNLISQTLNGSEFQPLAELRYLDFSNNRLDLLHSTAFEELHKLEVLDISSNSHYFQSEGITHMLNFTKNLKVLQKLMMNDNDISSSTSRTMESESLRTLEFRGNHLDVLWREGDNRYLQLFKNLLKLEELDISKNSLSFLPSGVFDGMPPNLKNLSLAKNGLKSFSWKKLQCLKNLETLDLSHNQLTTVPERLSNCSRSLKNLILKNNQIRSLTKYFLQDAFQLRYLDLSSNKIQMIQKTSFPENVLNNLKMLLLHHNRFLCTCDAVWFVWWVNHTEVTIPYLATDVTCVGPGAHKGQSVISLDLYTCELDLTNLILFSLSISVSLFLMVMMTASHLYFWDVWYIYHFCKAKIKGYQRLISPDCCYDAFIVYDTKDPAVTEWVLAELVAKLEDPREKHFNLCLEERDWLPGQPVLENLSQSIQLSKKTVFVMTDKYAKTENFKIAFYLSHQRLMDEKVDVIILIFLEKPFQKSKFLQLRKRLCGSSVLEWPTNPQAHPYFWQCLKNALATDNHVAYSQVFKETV
Method: Human TLR7 Agonist Activity Assay
This procedure describes a method for assaying human TLR7 (hTLR7) agonist activity of the compounds disclosed in this specification.
HEK-Blue™ TLR7 cells were added to each well of a 384-well tissue-culture plate (15,000 cells per well) and incubated 16-18 h at 37° C., 5% CO2. Compounds (100 nl) were dispensed into wells containing the HEK-Blue™ TLR cells and the treated cells were incubated at 37° C., 5% CO2. After 18 h treatment ten microliters of freshly-prepared Quanti-Blue™ reagent (Invivogen) was added to each well, incubated for 30 min (37° C., 5% CO2) and SEAP levels measured using an Envision plate reader (OD=620 nm).

[2] = test system: CD69; assay: Induction of CD69 in human whole blood; format: cell-based; conditions: 17 hrs incubation, CD69 surface staining, 100% set to 1 uM of resiquimod, average where assay repeated, read-out: hWB CD69 EC50
Method: Induction of Type I Interferon Genes (MX-1) and CD69 in Human Blood
The induction of Type I interferon (IFN) MX-1 genes and the B-cell activation marker CD69 are downstream events that occur upon activation of the TLR7 pathway. The following is a human whole blood assay that measures their induction in response to a TLR7 agonist.
Heparinized human whole blood was harvested from human subjects and treated with test TLR7 agonist compounds at 1 mM. The blood was diluted with RPMI 1640 media and Echo was used to predot 10 nL per well giving a final concentration of 1 uM (10 nL in 10 uL of blood). After mixing on a shaker for 30 sec, the plates were covered and placed in a 37° C. chamber for o/n=17 hrs. Fixing/lysis buffer was prepared (5×→1× in H2O, warm at 37° C.; Cat #BD 558049) and kept the perm buffer (on ice) for later use.
For surface markers staining (CD69): prepared surface Abs: 0.045 ul hCD14-FITC (ThermoFisher Cat #MHCD1401)+0.6 ul hCD19-ef450 (ThermoFisher Cat #48-0198-42)+1.5 ul hCD69-PE (cat #BD555531)+0.855 ul FACS buffer. Added 3 ul/well, spin 1000 rpm for 1 min and mixed on shaker for 30 sec, put on ice for 30 min. Stop stimulation after 30 minutes with 70 uL of prewarmed 1× fix/lysis buffer and use Feliex mate to resuspend (15 times, change tips for each plate) and incubate at 37 C for 10 minutes.
Centrifuge at 2000 rpm for 5 minutes aspirate with HCS plate washer, mix on shaker for 30 sec and then wash with 70 uL in dPBS and pelleted 2×s (2000 rpm for 5 min) and 50 ul wash in FACS buffer pelleted 1×s (2000 rpm for 5 min). Mix on shaker for 30 sec. For Intracellular markers staining (MX-1): Add 50 ul of BD Perm buffer III and mix on shaker for 30 sec. Incubate on ice for 30 minutes (in the dark). Wash with 50 uL of FACS buffer 2× (spin @2300 rpm×5 min after perm) followed by mixing on shaker for 30 sec. Resuspended in 20 ul of FACS buffer containing MX1 antibody ( )(4812)-Alexa 647: Novus Biologicals #NBP2-43704AF647) 20 ul FACS bf+0.8 ul hIgG+0.04 ul MX-1. Spin 1000 rpm for 1 min, mix on shaker for 30 se and the samples were incubated at RT in the dark for 45 minutes followed by washing 2×FACS buffer (spin @2300 rpm×5 min after perm). Resuspend 20 ul (35 uL total per well) of FACS buffer and cover with foil and place in 4° C. to read the following day. Plates were read on iQuePlus. The results were loaded into toolset and […] curves are generated in curve master. The y-axis 100% is set to 1 uM of resiquimod.

EC50 [1]	EC50 [2]	Compound
0.156 µM	0.321 µM	CCCCNc1nc(N)nc2cnn(Cc3ccc(CN4CCOCC4)c4cccnc34)c12 [Compound 107, N7-butyl-1-({5-[(morpholin-4-yl)methyl]quinolin-8-yl}methyl)-1H-pyrazolo[4,3-d]pyrimidine-5,7-diamine]
0.0055 µM	0.0162 µM	CCC[C@@H](CCO)Nc1nc(N)nc2cnn(Cc3ccc(CN4CCN(CCO)CC4)c4cccnc34)c12 [Compound 139, (3S)-3-({5-amino-1-[(5-{[4-(2-hydroxyethyl)piperazin-1-yl]methyl}quinolin-8-yl)methyl]-1H-pyrazolo[4,3-d]pyrimidin-7-yl}amino)hexan-1-ol]
0.0138 µM	0.0106 µM	CCC[C@@H](CCO)Nc1nc(N)nc2cnn(Cc3ccc(CNC4CCC4)c4cccnc34)c12 [Compound 103, (3S)-3-{[5-amino-1-({5-[(cyclobutylamino)methyl]quinolin-8-yl}methyl)-1H-pyrazolo[4,3-d]pyrimidin-7-yl]amino}hexan-1-ol]
0.0083 µM	0.0211 µM	CCC[C@@H](CCO)Nc1nc(N)nc2cnn(Cc3ccc(CN4C[C@H]5CN(C)C[C@H]5C4)c4cccnc34)c12 [Compound 140, (3S)-3-({1-[(5-{[(3aR,6aS)-5-methyl-octahydropyrrolo[3,4-c]pyrrol-2-yl]methyl}quinolin-8-yl)methyl]-5-amino-1H-pyrazolo[4,3-d]pyrimidin-7-yl}amino)hexan-1-ol]
0.0609 µM	0.0204 µM	CCC[C@@H](CCO)Nc1nc(N)nc2cnn(Cc3ccc(C(=O)N4CCNCC4)c4cccnc34)c12 [Compound 137, (3S)-3-[(5-amino-1-{[5-(piperazine-1-carbonyl)quinolin-8-yl]methyl}-1H-pyrazolo[4,3-d]pyrimidin-7-yl)amino]hexan-1-ol]
0.468 µM	0.756 µM	Nc1nc(NCC2CC3(CC3)C2)c2c(cnn2Cc2ccc(C(=O)N3CCN(CCO)CC3)c3cccnc23)n1 [Compound 115, 2-{4-[8-({5-amino-7-[({spiro[2.3]hexan-5-yl}methyl)amino]-1H-pyrazolo[4,3-d]pyrimidin-1-yl}methyl)quinoline-5-carbonyl]piperazin-1-yl}ethan-1-ol]
0.311 µM	0.208 µM	CCC[C@@H](CCO)Nc1nc(N)nc2cnn(Cc3ccc(C(=O)N4CCNC(=O)C4)c4cccnc34)c12 [Compound 118, 4-{8-[(5-amino-7-{[(3S)-1-hydroxyhexan-3-yl]amino}-1H-pyrazolo[4,3-d]pyrimidin-1-yl)methyl]quinoline-5-carbonyl}piperazin-2-one]

Second part, the compound before the results:

Compound	EC50 [1]	EC50 [2]
CCC[C@@H](CCO)Nc1nc(N)nc2cnn(Cc3ccc(C4CCNCC4)c4cccnc34)c12 [Compound 141, (3S)-3-[(5-amino-1-{[5-(piperidin-4-yl)quinolin-8-yl]methyl}-1H-pyrazolo[4,3-d]pyrimidin-7-yl)amino]hexan-1-ol]	0.0217 µM	0.0003 µM
CN1CCC(NC(=O)c2ccc(Cn3ncc4nc(N)nc(NCC5CC6(CC6)C5)c43)c3ncccc23)CC1 [Compound 116, 8-({5-amino-7-[({spiro[2.3]hexan-5-yl}methyl)amino]-1H-pyrazolo[4,3-d]pyrimidin-1-yl}methyl)-N-(1-methylpiperidin-4-yl)quinoline-5-carboxamide]	0.28 µM	0.291 µM
CCC[C@@H](CCO)Nc1nc(N)nc2cnn(Cc3ccc(C(=O)N4CC(CCOC)C4)c4cccnc34)c12 [Compound 128, (3S)-3-{[5-amino-1-({5-[3-(2-methoxyethyl)azetidine-1-carbonyl]quinolin-8-yl}methyl)-1H-pyrazolo[4,3-d]pyrimidin-7-yl]amino}hexan-1-ol]	0.0546 µM	0.102 µM
CCC[C@@H](CCO)Nc1nc(N)nc2cnn(Cc3ccc(C(=O)NCCCCO)c4cccnc34)c12 [Compound 136, 8-[(5-amino-7-{[(3S)-1-hydroxyhexan-3-yl]amino}-1H-pyrazolo[4,3-d]pyrimidin-1-yl)methyl]-N-(4-hydroxybutyl)quinoline-5-carboxamide]	0.231 µM	0.418 µM
CCC[C@@H](CCO)Nc1nc(N)nc2cnn(Cc3ccc(C(=O)N4CC(OC)C4)c4cccnc34)c12 [Compound 108, (3S)-3-[(5-amino-1-{[5-(3-methoxyazetidine-1-carbonyl)quinolin-8-yl]methyl}-1H-pyrazolo[4,3-d]pyrimidin-7-yl)amino]hexan-1-ol]	0.0676 µM	0.11 µM
CCC[C@@H](CCO)Nc1nc(N)nc2c(C)nn(Cc3ccc(C(=O)N4CCN(CCO)CC4)c4cccnc34)c12 [Compound 120, (3S)-3-{[5-amino-1-({5-[4-(2-hydroxyethyl)piperazine-1-carbonyl]quinolin-8-yl}methyl)-3-methyl-1H-pyrazolo[4,3-d]pyrimidin-7-yl]amino}hexan-1-ol]	0.882 µM	1 µM
CCC[C@@H](CCO)Nc1nc(N)nc2cnn(Cc3ccc(C(=O)NCCN)c4cccnc34)c12 [Compound 133, 8-[(5-amino-7-{[(3S)-1-hydroxyhexan-3-yl]amino}-1H-pyrazolo[4,3-d]pyrimidin-1-yl)methyl]-N-(2-aminoethyl)quinoline-5-carboxamide]	0.409 µM	0.593 µM
CCC[C@@H](CCO)Nc1nc(N)nc2cnn(Cc3ccc(C(=O)N4CCC(CCO)CC4)c4cccnc34)c12 [Compound 134, (3S)-3-{[5-amino-1-({5-[4-(2-hydroxyethyl)piperidine-1-carbonyl]quinolin-8-yl}methyl)-1H-pyrazolo[4,3-d]pyrimidin-7-yl]amino}hexan-1-ol]	0.0354 µM	0.194 µM
Nc1nc(NCC2CC3(CC3)C2)c2c(cnn2Cc2ccc(C(=O)N3CCNC(=O)C3)c3cccnc23)n1 [Compound 117, 4-[8-({5-amino-7-[({spiro[2.3]hexan-5-yl}methyl)amino]-1H-pyrazolo[4,3-d]pyrimidin-1-yl}methyl)quinoline-5-carbonyl]piperazin-2-one]	0.447 µM	0.267 µM
